Assay results published in patent publication US20250296922A1, “POLYSUBSTITUTED PYRROLIDINE DERIVATIVE, PREPARATION METHOD THEREFOR AND USE THEREOF” (SHANGHAI WENNAI THERAPEUTICS CO LTD, priority 2023, published 2025).

Biological target: Nav1.8 sodium channel (Homo sapiens (Human), UniProt Q9Y5Y9)
Test: NaV1.8 blocking activity, manual patch clamp
Assay type: cell-based
Details: CHO cell line stably expressing Nav1.8
Protocol: The NaV1.8 blocking activity was determined by using a manual patch clamp technique to detect the effect of the subject on the channel currents of stably overexpressed Nav1.8.
CHO cell line stably expressing the Nav1.8 sodium channel was used for the experiments, gene information: sodium channel, voltage-gated, type 8, alpha (SCN10A), cDNA strictly similar to GenBank accession number: NM 006514.
Cells were cultured in HAM'S/F-12 medium containing 10% foetal bovine serum and 10 μg/mL Blasticidin, 200 μg/mL Hygromycin B, and 100 μg/mL Zeocin at 37° C., 5% CO2. For expansion or maintenance cultures, cells were treated with 0.25%-Trypsin-EDTA, washed and centrifuged, and then inoculated in 6-cm cell culture dishes with 2.5×10^5lls per cell culture dish (final volume: 5 mL).
Prior to the patch clamp detection, cells were separated with 0.25%-Trypsin-EDTA and 6.5×10^3 cells were spread onto coverslips and incubated (final volume: 500 μL) in 24-well plates for 18 hours, then the test was performed.
50 mM CsCl, 10 mM NaCl, 10 mM HEPES, 60 mM CsF, 20 mM EGTA, and pH was adjusted to 7.2 with CsOH. • Instrument information is provided in Table 2 below:
Prior to Nav1.8 channel current testing, a blank control solution (DMSO) was diluted into 10 ml of extracellular fluid as the working solution. Positive controls and subjects were first diluted with different doses of DMSO depending on the final concentration before being diluted as working solution using extracellular fluid. 100 nM TTX was added to each working solution to block the TTX-S current. The working solution was sonicated for 20 min before performing the patch clamp test detection.
Patch clamp manipulation: firstly, the capillary glass tube was drawn into a recording electrode using a microelectrode puller, then the electrode filled with intracellular fluid was loaded into the microelectrode holder, and the microelectrode manipulator was manoeuvred under an inverted microscope to immerse the electrode into the extracellular fluid and record the electrode resistance (Rpip). The electrode was then slowly contacted to the cell surface and negative pressure suction was given to form a GQ2 seal. At this time, fast capacitance compensation was performed and negative pressure was continually applied to suction through the cell membrane to form a whole-cell recording pattern. Finally, slow capacitance compensation was performed and experimental parameters such as series resistance (Rs) were recorded. No leakage compensation was given.
Drug administration was initiated when the Nav1.8 current was stabilized for whole-cell recordings, and the next concentration was detected after each drug concentration had acted for approximately 5 min (or until the current was stable). Cell-lined coverslips were placed in the recording bath under an inverted microscope, and the blank control external solution as well as the working solution of the compound to be tested flowed sequentially from low to high concentrations through the recording bath by using gravitational perfusion and thus acted on the cells, and a peristaltic pump was used to exchange fluids during the recording. The current detected by each cell in the compound-free external fluid served as its own control. Each concentration was repeated independently 2-3 times. All electrophysiological experiments were performed at room temperature.
The voltage stimulation scheme for whole-cell patch-clamp recording of Nav1.8 currents was as follows: when a whole-cell seal was formed, the voltage was clamped at −120 mV. The resting state recording of sodium currents was performed by maintaining the voltage for 5s and then depolarizing it to 0 mV, and then administering a depolarizing pulse (TP1) to 0 m V for 50 ms for detecting the resting state sodium currents. For half-inactivated state recording, the voltage was first stepped at different voltages and maintained for 5s and then a depolarizing pulse was given to 0 mV to detect the Vhalf. […]

Chain of Nav1.8 sodium channel (Q9Y5Y9 whole entry): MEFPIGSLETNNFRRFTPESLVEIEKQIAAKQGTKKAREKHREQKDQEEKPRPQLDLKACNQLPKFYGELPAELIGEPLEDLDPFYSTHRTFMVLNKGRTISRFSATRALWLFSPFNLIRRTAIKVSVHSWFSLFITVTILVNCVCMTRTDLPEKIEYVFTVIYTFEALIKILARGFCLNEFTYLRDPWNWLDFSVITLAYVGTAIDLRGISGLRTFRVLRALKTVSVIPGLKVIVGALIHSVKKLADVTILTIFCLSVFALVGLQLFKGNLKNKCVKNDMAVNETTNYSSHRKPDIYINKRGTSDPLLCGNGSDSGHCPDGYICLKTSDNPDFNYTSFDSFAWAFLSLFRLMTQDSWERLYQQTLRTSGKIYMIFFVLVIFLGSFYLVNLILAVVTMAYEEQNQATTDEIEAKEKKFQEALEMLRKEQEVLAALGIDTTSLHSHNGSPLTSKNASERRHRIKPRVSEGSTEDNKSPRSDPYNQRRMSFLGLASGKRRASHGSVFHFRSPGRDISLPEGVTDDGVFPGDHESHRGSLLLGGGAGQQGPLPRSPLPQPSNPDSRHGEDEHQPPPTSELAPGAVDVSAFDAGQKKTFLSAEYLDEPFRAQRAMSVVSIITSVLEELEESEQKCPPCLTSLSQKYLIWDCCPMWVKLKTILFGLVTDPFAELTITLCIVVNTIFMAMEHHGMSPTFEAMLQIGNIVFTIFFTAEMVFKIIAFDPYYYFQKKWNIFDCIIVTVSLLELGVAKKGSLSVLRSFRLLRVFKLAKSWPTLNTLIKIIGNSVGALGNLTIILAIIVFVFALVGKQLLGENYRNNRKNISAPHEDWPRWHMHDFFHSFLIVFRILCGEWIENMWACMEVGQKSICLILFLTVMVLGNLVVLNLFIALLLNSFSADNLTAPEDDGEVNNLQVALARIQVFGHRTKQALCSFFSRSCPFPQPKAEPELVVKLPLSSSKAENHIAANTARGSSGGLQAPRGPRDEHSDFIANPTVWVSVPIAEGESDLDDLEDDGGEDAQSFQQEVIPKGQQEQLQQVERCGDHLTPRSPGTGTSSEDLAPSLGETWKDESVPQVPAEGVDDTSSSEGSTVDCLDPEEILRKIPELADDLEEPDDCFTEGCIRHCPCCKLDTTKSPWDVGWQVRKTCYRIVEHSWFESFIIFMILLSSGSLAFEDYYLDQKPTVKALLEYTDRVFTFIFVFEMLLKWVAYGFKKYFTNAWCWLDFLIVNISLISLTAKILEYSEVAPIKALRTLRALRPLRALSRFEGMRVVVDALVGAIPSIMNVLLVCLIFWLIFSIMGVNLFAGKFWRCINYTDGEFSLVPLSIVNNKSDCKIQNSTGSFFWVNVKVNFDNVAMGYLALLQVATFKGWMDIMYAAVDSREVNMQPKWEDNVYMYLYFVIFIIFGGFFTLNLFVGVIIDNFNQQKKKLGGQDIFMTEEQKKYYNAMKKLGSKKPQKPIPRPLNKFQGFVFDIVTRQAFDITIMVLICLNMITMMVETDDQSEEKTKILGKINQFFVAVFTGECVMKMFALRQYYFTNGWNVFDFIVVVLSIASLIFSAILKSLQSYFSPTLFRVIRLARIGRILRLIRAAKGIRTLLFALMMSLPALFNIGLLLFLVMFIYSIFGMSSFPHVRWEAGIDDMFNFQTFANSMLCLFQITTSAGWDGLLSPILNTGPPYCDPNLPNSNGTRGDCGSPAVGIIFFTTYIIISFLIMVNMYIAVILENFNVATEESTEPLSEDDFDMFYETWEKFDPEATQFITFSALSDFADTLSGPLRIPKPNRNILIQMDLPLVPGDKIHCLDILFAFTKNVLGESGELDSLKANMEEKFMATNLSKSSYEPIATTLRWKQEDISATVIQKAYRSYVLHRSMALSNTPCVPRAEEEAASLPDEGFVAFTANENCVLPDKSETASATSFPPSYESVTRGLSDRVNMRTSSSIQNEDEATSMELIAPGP

Row | Compound | Blocking rate (%) @3 nM [%] | Blocking rate(%) @10 nM [%]
1 | 4-((2R,3S,4S,5R)-3-(3,4-difluoro-2-(methoxy-d3)phenyl)-4,5-dimethyl-1-(2,2,2-trifluoroacetyl)-5-(trifluoromethyl) pyrrolidine-2-carboxamido)pyridinamide [Compound 17] | 28.89 | 77.24
2 | COc1c([C@@H]2[C@@H](C(=O)Nc3ccnc(C(N)=O)c3)N[C@](C)(C(F)(F)F)[C@@H]2C)ccc(F)c1F [Compound 2, 4-((2S,3R,4R,5S)-3-(3,4-difluoro-2-methoxyphenyl)-4,5-dimethyl-5-(trifluoromethyl)pyrrolidine-2-carboxamido)pyridine amide] |  | 9.30
3 | COc1c([C@H]2[C@H](C(=O)Nc3ccnc(C(N)=O)c3)N(C)[C@@](C)(C(F)(F)F)[C@H]2C)ccc(F)c1F [Compound 3, 4-((2R,3S,4S,5R)-3-(3,4-difluoro-2-methoxyphenyl)-1,4,5-trimethyl-5-(trifluoromethyl)pyrrolidine-2-carboxamido)pyridine amide] |  | 84.03
4 | COc1c([C@@H]2[C@@H](C(=O)Nc3ccnc(C(N)=O)c3)N(C)[C@](C)(C(F)(F)F)[C@@H]2C)ccc(F)c1F [Compound 4, 4-((2S,3R,4R,5S)-3-(3,4-difluoro-2-methoxyphenyl)-1,4,5-trimethyl-5-(trifluoromethyl)pyrrolidine-2-carboxamido)pyridine amide] |  | 6.05
5 | COc1c([C@H]2[C@H](C(=O)Nc3ccc([C@H](O)CO)nc3)N[C@@](C)(C(F)(F)F)[C@H]2C)ccc(F)c1F [Compound 5, (2R,3S,4S,5R)-3-(3,4-difluoro-2-methoxyphenyl)-aza-(6-((S)-1,2-dihydroxyethyl)pyridin-3-yl)-4,5-dimethyl-5-(trifluoromethyl) pyrrolidine-2-carboxamide] | 72.73 | 79.03
6 | COc1c([C@H]2[C@H](C(=O)Nc3ccc([C@@H](O)CO)nc3)N[C@@](C)(C(F)(F)F)[C@H]2C)ccc(F)c1F [Compound 6, (2R,3S,4S,5R)-3-(3,4-difluoro-2-methoxyphenyl)-aza-(6-((R)-1,2-dihydroxyethyl)pyridin-3-yl)-4,5-dimethyl-5-(trifluoromethyl) pyrrolidine-2-carboxamide] | 20.06 | 45.92
7 | COc1c([C@H]2[C@H](C(=O)Nc3ccnc(S(N)(=O)=O)c3)N[C@@](C)(C(F)(F)F)[C@H]2C)ccc(F)c1F [Compound 9, (2R,3S,4S,5R)-3-(3,4-difluoro-2-methoxyphenyl)-4,5-dimethyl-aza-(2-aminosulfonylpyridin-4-yl)-5-(trifluoromethyl) pyrrolidine-2-carboxamide] | 58.06 | 84.91
8 | COc1c([C@H]2[C@H](C(=O)Nc3ccnc(S(C)(=O)=O)c3)N[C@@](C)(C(F)(F)F)[C@H]2C)ccc(F)c1F [Compound 12, (2R,3S,4S,5R)-3-(3,4-difluoro-2-methoxyphenyl)-4,5-dimethyl-N-(2-(methylsulfonyl)pyridin-4-yl)-5-(trifluoromethyl) pyrrolidine-2-carboxamide] | 77.43 | 88.65
9 | C[C@H]1[C@@H](c2ccc(F)c(F)c2OC(F)F)[C@H](C(=O)Nc2ccnc(C(N)=O)c2)N[C@@]1(C)C(F)(F)F [Compound 13, 4-((2R,3S,4S,5R)-3-(2-(difluoromethoxy)-3,4-difluorophenyl)-4,5-dimethyl-5-(trifluoromethyl)pyrrolidine-2-carboxamido)pyridinamide] | 75.71 | 92.01
10 | [2H]C([2H])([2H])Oc1c([C@H]2[C@H](C(=O)Nc3ccc(F)c(C(=N)NO)c3)N[C@@](C)(C(F)(F)F)[C@H]2C)ccc(F)c1F [Compound 14, (2R,3S,4S,5R)-3-(3,4-difluoro-2-(methoxy-d3)phenyl)-N-(4-fluoro-3-(N-hydroxycarbamimidoyl)phenyl)-4,5-dimethyl-5-(trifluoromethyl) pyrrolidine-2-carboxamide] | 91.40 | 99.51
11 | [2H]C([2H])([2H])Oc1c([C@H]2[C@H](C(=O)Nc3ccnc(C(=N)NOC)c3)N[C@@](C)(C(F)(F)F)[C@H]2C)ccc(F)c1F [Compound 15, (2R,3S,4S,5R)-3-(3,4-difluoro-2-(methoxy-d3)phenyl)-N-(2-(N-methoxycarbamimidoyl)pyridin-4-yl)-4,5-dimethyl-5-(trifluoromethyl) pyrrolidine-2-carboxamide] | 35.55 | 79.44
12 | [2H]C([2H])([2H])Oc1c([C@H]2[C@H](C(=O)Nc3ccnc(C(=N)NO)c3)N[C@@](C)(C(F)(F)F)[C@H]2C)ccc(F)c1F [Compound 16, (2R,3S,4S,5R)-3-(3,4-difluoro-2-(methoxy-d3)phenyl)-N-(2-(N-hydroxycarbamimidoyl)pyridin-4-yl)-4,5-dimethyl-5-(trifluoromethyl) pyrrolidine-2-carboxamide] | 6.68 | 25.19
13 | [2H]C([2H])([2H])Oc1c([C@H]2[C@H](C(=O)Nc3cc[n+]([O-])c(C(N)=O)c3)N[C@@](C)(C(F)(F)F)[C@H]2C)ccc(F)c1F [Compound 18, 2-carbamoyl-4-((2R,3S,4S,5R)-3-(3,4-difluoro-2-(methoxy-d3)phenyl)-4,5-dimethyl-5-(trifluoromethyl)pyrrolidine-2-carboxamido)pyridine 1-oxide] | 40.29 | 63.01
14 | C[C@H]1[C@@H](c2ccc(F)c(F)c2OC(F)F)[C@H](C(=O)Nc2ccnc(C(N)=O)c2)N[C@@]1(C)C(F)(F)F [Compound 19, 4-((2R,3S,4S,5R)-3-(2-(difluoromethoxy)-3,4-difluorophenyl)-4,5-dimethyl-5-(trifluoromethyl)pyrrolidine-2-carboxamido)pyridinamide] | 26.22 | 55.68
